Reference: US20160228444A1, “NUCLEOSIDE ANALOGS AND USES THEREOF” (Ramot at Tel-Aviv University Ltd., priority 2015, published 2016)
Entries after “also recorded” stand apart in the source; their conditions may differ. Read-outs that look alike come from different tables or passages of the source.

Legend:
[1] = system: TLR4; test: TLR4 gene expression in MDA-MB-231 cells (qRT-PCR); type: cell-based, human; settings: FIG. 7C
Procedure: (§1) The effect of AN446 on inflammation-associated pathways was evaluated in the monocytic THP1 cell line and in the MDA-MB-231 breast carcinoma cell line. Supernatants of treated THP1 cells were collected and IL-6, IL-10 and TNF-α concentrations were quantified by ELISA (R&D systems). TLR4 expression in THP1 cells was assessed using fluorescent anti-TLR4 antibodies and FACS analysis. In addition, gene expression for MCP-1, TNF-α and TLR4 in MDA-MB-231 was evaluated by qRT-PCT, following treatment with AN446 and/or paclitaxel.

[2] = system: H9C2 cardiomyoblasts; type: cell-based, rat
Procedure: (§2) Cell viability by flow cytometry analysis (FACS) analysis was determined using the Mebcyto apoptosis kit (MBL-Japan). The cell lines 4T1, U251 (2×10^5 cells/well), astrocytes and the cardiomyoblastic cell line H9C2 (5×10^5 cells/well) were seeded in six-well plates. Following treatment they were trypsinized, washed with PBS, resuspended in […] of binding buffer and double-stained with annexin V-FITC and propidium iodide (PI) according to the manufacturer's instructions. The stained cells were subjected to FACS analyses (Calibur cytometer, Becton Dickinson) where 30,000 cells were allowed to flow for each determination point and the percentage of cells in each state (viability or death) was defined by their distribution in fluorescence dot-plots using WinMdi 2.8 software (Scripps Research Institute, La-Jolla, USA).
(§3) The apoptotic effect of AN446, Dox and their combination was evaluated in U251 and 4T1 cancer cells, and in the non-cancerous rat cardiomyoblast cell line (H9C2) and in primary rat astrocytes, using procedures previously described for AN7 [Tarasenko et al., Invest New Drugs 2012, 30:130-143].

[3] = system: MyLa CTLC cell line; test: MTT cell viability assay, 48 hours; type: cell-based, human
Procedure: (§4) The MyLa CTLC cell line (originating from an indolent mycosis fungoides patient) and the Hut-78 CTLC cell line (originating from an aggressive Sézary patient) were used to evaluate toxicity towards cancer cells, and peripheral blood lymphocytes (PBLs) from healthy volunteers were used to evaluate toxicity towards noncancerous cells.
(§5) Cell viability was determined by an MTT cell viability assay after 48 hours. MyLa cells (10^4 cells/well), Hut78 cells (5×10^3 cells/well) and normal PBLs (10^5 cells/well) were seeded in 96 well-plates. The PBLs were activated with 40 μg/10^6 cells of phytohemagglutinine (PHA) for 24 h before the experiment.

[4] = system: Hut-78 CTLC cell line; test: MTT cell viability assay, 48 hours; type: cell-based, human
Procedure: as §4, §5

[5] = system: HO-1; test: HO-1 protein and mRNA in tumor and heart of xenograft mice (Western blot, qRT-PCR); type: in vivo; settings: heart
Procedure: Tumors and hearts of the mice were rapidly removed, frozen on dry ice and kept at −70° C. Tissue was then homogenized and RNA and proteins extracted using the NucleoSpin® RNA/Protein kit according to the manufacturer's protocol (Macherey-Nagel, GmbH & Co KG).
Total RNA ([…]) was primed by oligo dT and reverse-transcribed by Verso cDNA kit according to the manufacturer's protocol (Thermo Scientific). Analyses of qPCR were performed with Kapa Sybr® Fast (Kapa Biosystems) on a Step One Plus thermocycler (Applied Biosystems). The comparative threshold method was used to calculate the relative gene expression. Values were normalized against glyceraldehyde 3-phosphate dehydrogenase (GAPDH). Expression of the GAPDH mRNA in each individual sample was used to normalize the dataset. The sequences of the primers were as follows: […]
(§6) Protein levels in the samples were determined with the BCA protein assay kit (Pierce). The samples were subjected to Western blot analyses. The expression of proteins was visualized using their specified primary antibodies followed by the secondary IgG IRDye® 680DX antibody. Each detected band was quantified using the Odyssey Infrared Imaging System (LI-COR Biosciences) and normalized to the level of actin. The fold increase of a specific protein was determined by the ratio of the band intensity obtained from treated and untreated samples.
The effect of the drugs on the expression of genes associated with cell survival and death was examined by following changes in transcription and protein expression in tissue samples taken from the mice with glioblastoma xenografts. Heme oxygenase (HO-1) is known to play a protective role in the heart, whereas, in many cancers it is expressed and promotes growth and survival of neoplastic cells.

[6] = system: MCP-1; test: MCP-1 gene expression in MDA-MB-231 cells (qRT-PCR); type: cell-based, human; settings: combination with paclitaxel, FIG. 7C
Procedure: as §1

[7] = system: c-Myc; test: c-Myc and p-c-Myc (Thr 58) Western blot in tumor and heart of xenograft mice; type: in vivo
Procedure: as §6
The c-Myc protein is an important regulator of normal cell physiology and in tumor cells it plays an important role in activating oncogenic pathways [Soucek & Evan, Curr Opin Genet Dev 2010, 20:91-95].

[8] = system: murine mammary carcinoma 4T1; test: FACS viability, annexin V-FITC / PI; type: cell-based; settings: AN446 24 h; 200 nM Dox 5 h; combination compared to Dox alone; FIG. 1C
Procedure: as §2, §3

[9] = system: U251 MG human glioma cells; test: FACS viability, annexin V-FITC / PI; type: cell-based
Procedure: as §2, §3

[10] = system: peripheral blood lymphocytes (PBLs) from healthy volunteers; test: MTT cell viability assay, 48 hours; type: cell-based; settings: Homo sapiens, Lymphocyte, read-out: IC50 PBL
Procedure: as §4, §5

[11] = system: VEGF; test: VEGF immunohistochemistry in tumor and heart of xenograft mice; type: in vivo; settings: FIG. 4F
Procedure: The pro-angiogenic factors basic fibroblast growth factor (bFGF) and vascular endothelial growth factor (VEGF) are potent angiogenic stimulators. The expression of bFGF in the tumor and in the heart was evaluated by Western blot and qRT-PCR analyses and expression of VEGF by IHC.

[12] = system: HUT-78 CTCL cells; test: Median-effect drug interaction, MTT viability, 72 h; type: cell-based, human; settings: Homo sapiens
Procedure: as §5
The ratios of the drug combination were based on the ratio of their IC50 of each drug alone. Cell viability was determined by MTT assay, as described hereinabove. The drugs were added to the cells and incubated for 72 h.

CCCC(CCC)C(=O)Nc1nc2c(ncn2COCCOC(=O)C(CCC)CCC)c(=O)[nH]1 [AN446, N-valproyl-9-(2-valproyloxy)ethoxymethyl-guanine]
paclitaxel-induced increase in expression of TLR4 ([1]; combination with paclitaxel): significantly attenuated | expression of TLR4 ([1]; single agent): reduced expression of TLR4 | cell death in H9C2 cardiomyoblasts ([2]; 24, 48 or 72 hours, each inhibitor at its U251 IC50, FIG. 10): did not induce significant cardiomyocyte cell death | viability / mortality of H9C2 cells ([2]; noncancerous cells, combination compared to Dox alone, FIG. 1C): did not substantially affect the viability | IC50 ([3]; Homo sapiens, 48 h, read-out: IC50 MyLa): 40 ± 2.3 µM | toxicity to MyLa cells relative to normal PBLs ([3]; from Table 1 IC50 values): about 5 fold | IC50 ([4]; Homo sapiens, HuT78, 48 h, read-out: IC50 HUT78): 21 ± 1.3 µM | toxicity to Hut-78 cells relative to normal PBLs ([4]; from Table 1 IC50 values): about 10 fold | HO-1 expression in the heart ([5]; co-treatment with Dox): increased the expression of this enzyme to a significantly higher level | HO-1 mRNA in the heart, elevation of basal expression level ([5]; co-treatment with Dox): 3.89±0.35 fold | HO-1 expression in the heart (decrease) ([5]; single agent, FIGS. 4D, 4E): did not significantly change | paclitaxel-induced increase in expression of MCP-1 [6]: significantly attenuated | c-Myc protein expression in the hearts ([7]; heart, FIG. 5B): significantly increased its expression to a level higher than in naive or vehicle-treated mice | c-Myc protein expression in tumors ([7]; tumor, FIG. 5A): decreased dramatically | viability / mortality of 4T1 cells [8]: significantly enhanced the mortality | cell death in U251 glioblastoma cells ([9]; 24, 48 or 72 hours, each inhibitor at its U251 IC50, FIG. 9, listed as valprostat): effective at inducing cell death in glioblastoma cells after 24, 48 or 72 hours; also recorded: particularly more effective than the other tested HDAC inhibitors at inducing cell death after 24 hours | viability / mortality of U251 cells ([9]; AN446 24 h, 200 nM Dox 5 h, combination compared to Dox alone, FIG. 1C): significantly enhanced the mortality | therapeutic index (ratio of cancer cell mortality to cardiomyoblast mortality) ([9]; U251 vs H9C2, at each time point (24, 48, 72 hours), FIG. 11): more than 2 | IC50 [10]: 200 ± 3 µM | VEGF expression in the heart [11]: elevated | IC50 ([12]; HuT78, HUT-78, single agent, Table 2): 28 µM | IC50 ([12]; HuT78, read-out: com IC50, HUT-78, in combination with Dox): 11 µM
